Assay results taken from US11873298B2, “Compounds and uses thereof” (JANSSEN PHARMACEUTICA NV, priority 2017, dated 2024).

How the values were obtained:
SCD1 = biological target: T1, SCD1 (Homo sapiens, UniProt O00767); test: Growth inhibition of humanized yeast strain expressing SCD1 as sole desaturase; assay type: cell-based
T1 construct: host or cells: S. cerevisiae ole1Δ strain (W303 pdr1Δ pdr3Δ background), plasmid pRS316 with TDH3 promoter and CYC1 terminator
T1 sequence (O00767 1-359): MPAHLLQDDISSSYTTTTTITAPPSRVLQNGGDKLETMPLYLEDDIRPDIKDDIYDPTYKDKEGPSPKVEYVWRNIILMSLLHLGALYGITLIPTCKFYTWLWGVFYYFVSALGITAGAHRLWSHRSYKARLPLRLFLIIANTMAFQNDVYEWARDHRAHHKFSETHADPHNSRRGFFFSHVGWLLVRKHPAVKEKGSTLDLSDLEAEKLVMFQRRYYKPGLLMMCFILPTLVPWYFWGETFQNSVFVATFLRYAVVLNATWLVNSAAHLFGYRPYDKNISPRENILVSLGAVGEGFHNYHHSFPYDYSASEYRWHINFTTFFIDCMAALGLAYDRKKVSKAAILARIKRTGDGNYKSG
Description: Strain oleΔ (yeast ole1 deletion mutant) was constructed by deleting OLE1 with NAT-MX6 in BY4741, amplifying the deletion cassette from the genomic DNA of the resulting strain with primers flanking the ORF by 1000 bp upstream and downstream, transforming the resulting deletion cassette into W303 pdr1Δ pdr3Δ, and plating transformants on YPD media containing G418 (200 μg/mL) and nourseothricin ([…]) with 0.01% TWEEN®-20 and 0.5 mM oleic and palmitoleic acids.
The coding sequence of yeast OLE1 was also cloned into this plasmid). These clones were then transformed into the ole1Δ strain and plated on CSM-Ura media (CSM lacking uracil) with 2% glucose (w/v) and independent colonies were isolated and amplified.
All compound profiling experiments were performed using the same basic protocol. Different genetic backgrounds (e.g., gene deletions) or conditions (e.g., addition of oleic and palmitoleic acid) were replaced as indicated below.
Yeast were cultured using standard techniques in complete synthetic media (CSM) and yeast nitrogen base supplemented with 2% (w/v) carbon source (glucose, raffinose, or galactose) to regulate the expression of the toxic disease protein. An initial starter culture was inoculated in 3 mL CSM-Glucose media and incubated overnight in a 30° C. shaker incubator (225 rpm). Saturated morning cultures were then diluted 1:20 in fresh CSM-Raffinose media and grown for 6 h to an OD600 (optical density) of ˜0.4-0.8 at 30° C. with shaking.
Compound administration was performed in two separate steps. First, 15 μL of CSM-Galactose (induces expression of toxic protein) was dispensed into clear 384 well assay plates using a MULTIDROP™ Combi reagent dispenser. […] The cultures described above were then diluted to a 2× concentration (0.03 and 0.08 for alpha-synuclein and ApoE, final ODsoo of 0.015 and 0.04) in CSM-Galactose. For wild-type and Ole1/SCD1/SCD5 plasmid-containing strains, the 2× cell density was 0.02. […] For 96-well assays (FIGS. 1A and 1B), compound dilutions in DMSO were generated in 96 well plates and 1 μL was manually pipetted into 96 well clear bottom assay plates.
For experiments using a plasmid-borne copy of Ole1, SCD1, or SCD5 (FIGS. 3B, 6, and 7), media lacking uracil (SX-Ura, where X is glucose, raffinose, or galactose), was used for all steps of the compound profiling protocol to ensure its maintenance throughout the assay.
After yeast delivery, assay plates were incubated under humidified conditions at 30° C. for 24 to 40 h. ApoE4 rescue experiments were stopped at 24 h, aSyn experiments at 40 h, Ole1 at 24 h, and SCD1/SCD5 at 40 h. The growth of yeast was monitored by reading the ODsoo of each well using a microplate reader (Perkin Elmer EnVision™).

SCD5 = biological target: T2, SCD5 (Homo sapiens, UniProt Q86SK9); test: Growth inhibition of humanized yeast strain expressing SCD5 as sole desaturase; assay type: cell-based
T2 construct: host or cells: S. cerevisiae ole1Δ strain (W303 pdr1Δ pdr3Δ background), plasmid pRS316 with TDH3 promoter and CYC1 terminator
T2 sequence (Q86SK9 1-330): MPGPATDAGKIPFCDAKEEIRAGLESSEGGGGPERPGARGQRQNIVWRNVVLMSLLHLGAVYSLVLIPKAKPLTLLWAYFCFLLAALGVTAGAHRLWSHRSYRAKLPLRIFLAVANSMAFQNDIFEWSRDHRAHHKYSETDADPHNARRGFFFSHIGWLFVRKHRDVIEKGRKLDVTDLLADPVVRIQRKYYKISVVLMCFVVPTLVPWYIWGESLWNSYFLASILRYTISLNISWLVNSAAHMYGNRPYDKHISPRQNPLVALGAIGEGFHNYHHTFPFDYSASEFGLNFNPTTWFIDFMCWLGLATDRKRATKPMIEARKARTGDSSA
Procedure, shortened: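 ole1Δ yeast (W303 pdr1Δ pdr3Δ background) carrying plasmid-borne Ole1, SCD1 or SCD5, grown in uracil-free media; cultures pre-grown in raffinose, seeded at 2× density 0.02 in galactose media with compound. Growth read as OD600 after 24 h at 30° C. for Ole1, 40 h for SCD1/SCD5.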

[1] = growth inhibition of humanized yeast strain expressing human SCD1
[2] = growth inhibition of humanized yeast strain expressing human SCD5
[3] = humanized yeast strain expressing SCD1
[4] = humanized yeast strain expressing SCD5

Row | Compound | IC50 (SCD1; humanized yeast strain, 40 h) [µM] | IC50 (SCD5; humanized yeast strain, 40 h) [µM] | further results
1 | CC(C)n1ncc2ccc(-c3noc(C4CCN(C(=O)C56CC(C(F)(F)F)(C5)C6)CC4)n3)cc21 [Compound 757] | > 45 | 4.95 | 
2 | CC(C)(C)OC(=O)N1CCC(c2nc(-c3ccn4cncc4c3)no2)CC1 [Compound 793] | > 45 | > 45 | 
3 | CC1(OC(=O)N2CCC(c3noc(-c4ccnc([C@@H]5CCOC5)c4)n3)CC2)CC1 [Compound 1137] | > 45 | 0.0522 | 
4 | O=C(N1CCN(c2nnc(-c3ccc4cnn(C5COC5)c4c3)o2)CC1)C12CC(C1)C2 [Compound 994] | > 45 | > 45 | 
5 | O=C(c1ncccc1F)N1CCN(c2noc(-c3ccc4cnn(C5COC5)c4c3)n2)CC1 [Compound 972] | > 45 | 4.44 | 
6 | CC(C)(C)OC(=O)N1CCC(c2noc(-c3cccc([C@@H]4CCOC4)c3)n2)CC1 [Compound 795] | > 45 | 0.01 | 
7 | COC(=O)N1CCC(c2noc(-c3ccc4cnn(C5COC5)c4c3F)n2)CC1 [Compound 1004] | > 45 | 0.297 | 
8 | CNC(=O)O[C@H]1CC[C@H](c2nc(-c3ccc4c(C)nn(C)c4c3)no2)CC1 [Compound 609] |  |  | IC50 (SCD1; [1]): > 45 µM; IC50 (SCD5; [2]): > 45 µM
9 | CC(C)(C)OC(=O)N1CCC(c2nc(-c3ccc4cnn(C5(C)COC5)c4c3)no2)CC1 [Compound 753] | > 45 | 0.585 | 
10 | CC(C)(C)OC(=O)N1CCC(c2nc(-c3ccc4cnn(C5CCCOC5)c4c3)no2)CC1 (centres unmarked) [Compound 720] |  |  | IC50 (SCD1; [1]): > 45 µM; IC50 (SCD5; [2]): 1.97 µM
11 | COC(=O)N1CCC(c2nc(-c3ccc4cnn(C(C)C)c4c3)no2)CC1 [Compound 355] |  |  | SCD1 % Max Inhibition (SCD1; [3]): 71.31%; IC50 (SCD5; [4]): > 45 µM; SCD5 % Max Inhibition (SCD5; [4]): 3.68%
12 | CC(C)C(=O)N1CCC(c2noc(-c3cc(F)c4cnn(C5COC5)c4c3)n2)CC1 [Compound 1068] | > 45 | 0.00375 | 
13 | Cc1nn(C)c2cc(-c3nc(C4CCN(C(=O)OC5CC5)CC4)no3)ccc12 [Compound 911] | > 45 | > 45 | 
14 | CC(C)(C)OC(=O)N1CCN(c2nc(-c3ccc4cnn(C5CCOC5)c4c3)no2)CC1 (centres unmarked) [Compound 784] | 0.95 | 0.01 | 
15 | CC(C)C(=O)N1CCC(c2nc(-c3ccnc(F)c3)no2)CC1 [Compound 1124] | > 45 | > 45 | 
16 | CC(C)(C)OC(=O)N1CCC(c2noc(-c3ccc4cnn(C5COC5)c4c3)n2)CC1 [Compound 643] |  |  | IC50 (SCD1; [1]): > 45 µM; IC50 (SCD5; [2]): 0.01 µM
17 | Cc1nn(C)c2cc(-c3nc(C4CCN(C(=O)OC5CCC5)CC4)no3)ccc12 [Compound 923] | > 45 | > 45 | 
18 | CC(C)(C)OC(=O)N1CCC(c2noc(-c3ccc4oc(=O)[nH]c4c3)n2)CC1 [Compound 1009] | > 45 | 9.51 | 
19 | COC(=O)N1CCC(c2cc(-c3ccc4cnn(C5COC5)c4c3)on2)CC1 [Compound 1027] | > 45 | 3.16 | 
20 | CCOC(=O)CC(C)n1ncc2ccc(-c3noc(C4CCN(C(=O)OC(C)(C)C)CC4)n3)cc21 (centres unmarked) [Compound 651] |  |  | IC50 (SCD1; [1]): > 45 µM; IC50 (SCD5; [2]): 18.4 µM
21 | CC(CF)n1ncc2ccc(-c3noc(C4CCN(C(=O)OC5(C)CC5)CC4)n3)cc21 (centres unmarked) [Compound 607] |  |  | IC50 (SCD1; [1]): > 45 µM; IC50 (SCD5; [2]): 0.511 µM
22 | O=C(N1CCC(c2noc(-c3ccc4cnn(C5COC5)c4c3)n2)CC1)C12CC(F)(C1)C2 [Compound 895] | > 45 | 0.01 | 

Row | Compound | IC50 (SCD1; humanized yeast strain, 40 h) [µM] | IC50 (SCD5; humanized yeast strain, 40 h) [µM] | further results
23 | O=C(C1CC1)N1CCC(c2noc(-c3ccnc(Cl)c3)n2)CC1 [Compound 1123] | > 45 | 6.64 | 
24 | CC(C)(C)OC(=O)N1CCN(c2noc(-c3cccc(C4CCOC4)c3)n2)CC1 (centres unmarked) [Compound 778] | > 45 | 0.012 | 
25 | O=C(CC1CC1)N1CCN(c2noc(-c3ccc4cnn(C5COC5)c4c3)n2)CC1 [Compound 839] | > 45 | 0.035 | 
26 | O=C(C1CC1)N1CCC(c2noc(-c3cc(F)c4cnn(C5COC5)c4c3)n2)CC1 [Compound 1067] | > 45 | 0.00498 | 
27 | CC(C)(C)OC(=O)N1CCC(c2noc(-c3ccc(N4CCOCC4)cc3)n2)CC1 [Compound 1150] | > 45 | > 45 | 
28 | Cc1nn(C)c2cc(-c3noc(C4CCN(C(=O)CNC(=O)OC(C)(C)C)CC4(F)F)n3)ccc12 (centres unmarked) [Compound 527] |  |  | IC50 (SCD1; [3]): 0.958 µM; IC50 (SCD5; [4]): 1.46 µM
29 | COC(=O)N1CCC(c2noc(-c3ccc4cnn(C(CO)CO)c4c3)n2)CC1 [Compound 834] | > 45 | > 45 | 
30 | CC(C)n1ncc2ccc(-c3noc(C4(O)CCN(C(=O)OC(C)(C)C)CC4)n3)cc21 [Compound 832] | > 45 | 11.6 | 
31 | CC(C)n1ncc2ccc(-c3nc(C4CCN(CC5CC5)C(=O)C4)no3)cc21 (centres unmarked) [Compound 1146] | > 45 | 0.38 | 
32 | CC(C)n1ncc2ccc(-c3noc(C4CCN(Cc5ncco5)CC4)n3)cc21 [Compound 615] |  |  | IC50 (SCD1; [1]): 0.848 µM; IC50 (SCD5; [2]): 1.88 µM
33 | CC(C)N1C(=O)Cc2ccc(-c3noc(C4CCN(C(=O)OC5(C)CC5)CC4)n3)cc21 [Compound 610] |  |  | IC50 (SCD1; [1]): > 45 µM; IC50 (SCD5; [2]): 2.16 µM
34 | C[C@@H]1C[C@@H](c2noc(-c3ccc4cnn(C5COC5)c4c3)n2)CCN1C(=O)C1CCC1 [Compound 1066] | > 45 | 0.000681 | 
35 | CC(C)n1ncc2ccc(-c3nc(C4CCN(C(=O)C5(O)CC5)CC4)no3)cc21 [Compound 722] |  |  | IC50 (SCD1; [1]): > 45 µM; IC50 (SCD5; [2]): 1.37 µM
36 | CC(C)C(=O)N1CCC(c2noc(-c3ccc4cnn(C5COC5)c4c3)n2)CC1 [Compound 927] | > 45 | 0.14 | 
37 | CC(C)C(=O)N1CCC(c2noc(-c3ccc4cnn(C5CCOC5)c4c3)n2)CC1 (centres unmarked) [Compound 1024] | > 45 | 0.01 | 
38 | Clc1cnc2n1CCN(c1noc(-c3ccc4cnn(C5COC5)c4c3)n1)C2 [Compound 896] | > 45 | 0.01 | 
39 | CC(C)(C)OC(=O)N1CCC(c2noc(-c3ccc4cnn([C@@H]5CCOC5)c4c3)n2)CC1 [Compound 1092] | 32.3 | 0.01 | 
40 | COC(=O)N1CCN(c2nc(-c3cccc(C4CCOC4)c3)no2)CC1 (centres unmarked) [Compound 837] | > 45 | 12.5 | 
41 | COC1CCC(S(=O)(=O)N2CCC(c3nc(-c4ccc5cnn(C(C)C)c5c4)no3)CC2)CC1 (centres unmarked) [Compound 517] |  |  | IC50 (SCD1; [3]): > 45 µM; IC50 (SCD5; [4]): > 45 µM
42 | O=C(c1sccc1Cl)N1CCC(c2noc(-c3ccc4cnn(C5COC5)c4c3)n2)CC1 [Compound 698] |  |  | IC50 (SCD1; [1]): > 45 µM; IC50 (SCD5; [2]): 0.026 µM
43 | O=C(C1CC1)N1CCC(c2noc(-c3ccc4cnn(C5COC5)c4c3)n2)CC1 [Compound 887] | > 45 | 0.01 | 
44 | COC(=O)N1CCN(c2noc(-c3ccc4cnn(C5COC5)c4c3)n2)CC(F)(F)C1 [Compound 1034] | > 45 | 0.639 | 
